Measurements published in patent publication US11161860B2, “Compound having effects of inhibiting phosphodiesterase 4, preparation method thereof and pharmaceutical use thereof” (Hefei Industrial Pharmaceutical Institute Co., Ltd., priority 2018, dated 2021).
Marks after values point to notes of the source that are not given here.

Legend:
PDE4A enzyme = biological target: T1, PDE4A enzyme (Homo sapiens, UniProt P27815); test: Inhibition of the activity of PDE4A enzyme (fluorescence polarization, Transcreener AMP2/GMP2); format: biochemical; conditions: 1 h, mean ± spread; for remaining activity at 0.01 µM: 0.01 μM compound; for remaining activity at 0.1 µM: 0.1 μM compound; for remaining activity at 1 µM: 1 μM compound
T1 construct: GST (N); host or cells: Sf9 insect cells (baculovirus)
Protocol: The PDE4A enzyme expressed from baculovirus is labeled with N-terminal GST from Sf9 insect cells. A specified PDE4A enzyme and 1 mM cAMP are added to the newly prepared pH 7.5 Tris buffer, the enzyme solution is transferred into reaction wells, and the compound is sonicated in DMSO and then added to the enzyme solution for culturing for 10 minutes at room temperature; the substrate solution is poured into the reaction wells to initiate the reaction and cultured at room temperature for 1 hour, and a detection tracer (AMP2/GMP2 AlexaFluor 633 Tracer) and an antibody (Transcreener® AMP2/GMP2 Antibody) are added to stop the reaction for culturing for 90 minutes with gentle mixing. […]

[1] = system: DNCB-induced atopic dermatitis mice; test: DNCB-induced dermatitis mouse model, skin thickness; format: in vivo, female BALB/C mice; conditions: for reduction of the thickness of the dermis compared with Crisaborole / reduction of the thickness of the epidermis compared with Crisaborole / reduction of the thickness of the dermis compared with the compound Y5 / reduction of the thickness of the epidermis compared with the compound Y5: 50 mg/mL topical; for reduction of the thickness of the dermis compared with Crisaborole / reduction of the thickness of the epidermis compared with Crisaborole: statistical comparison vs Crisaborole group; for reduction of the thickness of the dermis compared with the compound Y5 / reduction of the thickness of the epidermis compared with the compound Y5: statistical comparison vs Y5 group; for Epidermal thickness / Dermis thickness: 50 mg/mL, 100 μL applied to back skin, 11 times once a day, Mean ± SD, n = 8; for Epidermal thickness: model 137.76, blank 48.93; for Dermis thickness: model 500.71, blank 194.70
Protocol: After female BALB/C mice are selected, each weighing 18-22 g, for animal adaptive breeding for 7 days, these are randomly divided into a blank group, a model group, a positive drug Crisaborole group, a hexadecadrol group, and compound groups, with 8 in each group. Except for the mice in the blank group, the remaining mice are applied with 100 μL of a 1% DNCB solution [acetone: olive oil=4:1 (V/V)] on the skin of the back of the shaved mice, and applied continuously for 3 days once a day. Then, dosing treatment starts 4 days after the mice are housed, and the test drug is applied to the back of each group of animals, wherein animals in the blank group and the model group are applied with a corresponding solvent, the positive drug Crisaborole group and hexadecadrol group are applied with 50 mg/mL of a corresponding drug, and the administration group is applied with 50 mg/mL of a corresponding compound, with 100 μL for each mouse; after application of 4 hours, 0.5% DNCB solution is applied for secondary challenge, and repeated administration and challenge treatment are performed 11 times, once a day. 24 hours after the last administration, the animals are sacrificed, and the back skins (1×0.4 cm^2) are taken and fixed in 10% formalin buffer to make pathological sections and perform HE staining; then, the epidermal and dermal layers are observed under a 100× […], and 5 areas are selected for detection of and recording the skin thickness, and then the average value is taken to represent the final thicknesses of the epidermal layer and dermal layer, respectively.

T1 sequence (P27815 whole entry, species assumed): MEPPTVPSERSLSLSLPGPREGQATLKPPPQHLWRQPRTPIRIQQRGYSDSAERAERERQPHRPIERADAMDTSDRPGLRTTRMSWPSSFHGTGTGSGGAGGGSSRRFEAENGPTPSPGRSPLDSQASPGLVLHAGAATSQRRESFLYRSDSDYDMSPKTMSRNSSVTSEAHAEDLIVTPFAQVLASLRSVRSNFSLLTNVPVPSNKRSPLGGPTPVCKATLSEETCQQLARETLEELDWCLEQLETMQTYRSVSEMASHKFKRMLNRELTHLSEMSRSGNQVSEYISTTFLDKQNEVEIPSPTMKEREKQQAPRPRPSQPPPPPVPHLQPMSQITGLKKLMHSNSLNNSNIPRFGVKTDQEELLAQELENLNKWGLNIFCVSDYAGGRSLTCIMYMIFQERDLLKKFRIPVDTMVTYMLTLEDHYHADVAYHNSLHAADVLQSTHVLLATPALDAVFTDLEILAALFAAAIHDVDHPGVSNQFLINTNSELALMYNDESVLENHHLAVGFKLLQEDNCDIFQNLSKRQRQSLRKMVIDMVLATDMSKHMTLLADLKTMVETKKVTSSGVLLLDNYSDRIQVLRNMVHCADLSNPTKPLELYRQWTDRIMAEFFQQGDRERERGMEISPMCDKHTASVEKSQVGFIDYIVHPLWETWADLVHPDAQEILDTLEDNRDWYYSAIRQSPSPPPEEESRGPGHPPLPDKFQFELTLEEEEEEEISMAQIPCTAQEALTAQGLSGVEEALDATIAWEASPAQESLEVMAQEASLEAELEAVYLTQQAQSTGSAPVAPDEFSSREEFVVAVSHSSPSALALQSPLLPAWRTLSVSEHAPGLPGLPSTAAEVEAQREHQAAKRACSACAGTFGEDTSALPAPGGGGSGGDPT

Compound | remaining activity at 0.01 µM (PDE4A enzyme) | remaining activity at 0.1 µM (PDE4A enzyme) | remaining activity at 1 µM (PDE4A enzyme) | reduction of the thickness of the dermis compared with Crisaborole [1] | reduction of the thickness of the epidermis compared with Crisaborole [1] | reduction of the thickness of the dermis compared with the compound Y5 [1] | reduction of the thickness of the epidermis compared with the compound Y5 [1] | Epidermal thickness [1] | Dermis thickness [1]
OB1OCc2cc(Oc3ccc4cc(C(F)(F)F)c(Cl)cc4n3)ccc21 [PD-15] | 2.09 ± 0.99% | 0.54 ± 0.5% | 1.08 ± 0.4% | significantly reduce the thickness of the dermis of dermatitis mice (P≤0.01) | significantly reduce the thickness of the epidermis (P≤0.01) | significantly reduce the thickness of the dermis of dermatitis mice (P≤0.01) | significantly reduce the thickness of the epidermis (P≤0.01) | 74.28 ± 8.26**^##aa μm | 376.62 ± 23.73 ^a a μm
N#Cc1cc2ccc(Oc3ccc4c(c3)COB4O)nc2cc1Cl [PD-16] | 1.05 ± 1.26% | 0.45 ± 0.3% | 0.21 ± 0.57% | significantly reduce the thickness of the dermis of dermatitis mice (P≤0.01) | significantly reduce the thickness of the epidermis (P≤0.01) | significantly reduce the thickness of the dermis of dermatitis mice (P≤0.05) | significantly reduce the thickness of the epidermis (P<0.05) | 78.64 ± 9.75 a μm | 388.46 ± 24.06 a μm
OB1OCc2cc(Oc3cc(C(F)(F)F)c4cc(C(F)(F)F)ccc4n3)ccc21 [PD-17] | 4.17 ± 0.99% | 1.89 ± 0.6% | 0.77 ± 0.39% | significantly reduce the thickness of the dermis of dermatitis mice (P≤0.01) | significantly reduce the thickness of the epidermis (P≤0.01) | significantly reduce the thickness of the dermis of dermatitis mice (P≤0.01) | – | 80.76 ± 10.51 μm | 380.74 ± 20.15 ^a a μm
OB1OCc2cc(Oc3cc(F)c4cc(C(F)(F)F)ccc4n3)ccc21 [PD-21] | 1.64 ± 0.55% | 0.33 ± 0.23% | 0.28 ± 0.14% | significantly reduce the thickness of the dermis of dermatitis mice (P≤0.01) | significantly reduce the thickness of the epidermis (P≤0.01) | significantly reduce the thickness of the dermis of dermatitis mice (P≤0.05) | significantly reduce the thickness of the epidermis (P≤0.01) | 70.62 ± 7.12 ^aa μm | 383.34 ± 24.40**^##a μm
N#Cc1ccc2nc(Oc3ccc4c(c3)COB4O)cc(F)c2c1 [PD-22] | 7.16 ± 1.04% | 3.06 ± 0.27% | 1.78 ± 0.63% | – | – | – | – | 103.45 ± 11.74 μm | 447.77 ± 33.37 μm
N#Cc1ccc2nc(Cl)cc(Oc3ccc4c(c3)COB4O)c2c1 [PD-26] | 12.8 ± 1.82% | 7.23 ± 1.83% | 2.04 ± 0.24% | significantly reduce the thickness of the dermis of dermatitis mice (P≤0.01) | significantly reduce the thickness of the epidermis of the dermatitis mice (P≤0.05) | – | – | 83.94 ± 7.63 μm | 408.97 ± 23.06 μm
OB1OCc2cc(Oc3cc(Cl)nc4ccc(C(F)(F)F)cc34)ccc21 [PD-28] | 9.14 ± 0.89% | 4.42 ± 0.64% | 2.1 ± 0.93% | – | – | – | – | 70.51 ± 12.45 μm | 352.69 ± 30.77**^aa μm

The next lines start with results.

remaining activity at 0.01 µM (PDE4A enzyme) | remaining activity at 0.1 µM (PDE4A enzyme) | remaining activity at 1 µM (PDE4A enzyme) | Compound | reduction of the thickness of the dermis compared with Crisaborole [1] | reduction of the thickness of the epidermis compared with Crisaborole [1] | reduction of the thickness of the dermis compared with the compound Y5 [1] | reduction of the thickness of the epidermis compared with the compound Y5 [1] | Epidermal thickness [1] | Dermis thickness [1]
3.57 ± 1.08% | 1.26 ± 1.17% | 0.15 ± 0.1% | CC(=O)c1ccc2nc(Oc3ccc4c(c3)COB4O)ccc2c1 [PD-14] | significantly reduce the thickness of the dermis of dermatitis mice (P≤0.01) | significantly reduce the thickness of the epidermis (P≤0.01) | significantly reduce the thickness of the dermis of dermatitis mice (P≤0.01) | significantly reduce the thickness of the epidermis (P≤0.01) | 75.24 ± 7.98 aa μm | 365.40 ± 21.95 ^a a μm
1.52 ± 0.44% | 0.46 ± 0.35% | 0.13 ± 0.06% | COC(=O)c1ccc2nc(Oc3ccc4c(c3)COB4O)cc(C(F)(F)F)c2c1 [PD-18] | – | – | – | – | 90.35 ± 11.20 μm | 436.16 ± 35.42 μm
4.22 ± 0.86% | 1.56 ± 0.48% | 0.54 ± 0.47% | CC(=O)c1ccc2nc(Oc3ccc4c(c3)COB4O)cc(C(F)(F)F)c2c1 [PD-19] | – | – | – | – | 96.05 ± 9.75 μm | 441.12 ± 30.17 μm
6.13 ± 0.93% | 3.64 ± 0.48% | 1.78 ± 0.5% | COC(=O)c1ccc2nc(Oc3ccc4c(c3)COB4O)cc(F)c2c1 [PD-20] | – | – | – | – | 98.74 ± 10.55 μm | 438.14 ± 29.71 μm
9.26 ± 0.73% | 4.51 ± 0.94% | 2.45 ± 0.76% | OB1OCc2cc(Oc3ccc4cc(C(F)(F)F)ccc4c3)ccc21 [PD-23] | – | – | – | – | 97.34 ± 8.36 μm | 435.56 ± 27.08 μm
9.17 ± 1% | 7.31 ± 1.16% | 2.64 ± 0.56% | COC(=O)c1cccc2cc(Oc3ccc4c(c3)COB4O)ccc12 [PD-24] | significantly reduce the thickness of the dermis of dermatitis mice (P≤0.05) | significantly reduce the thickness of the epidermis of the dermatitis mice (P≤0.05) | – | – | 91.17 ± 9.03 μm | 420.33 ± 24.75 μm
7.17 ± 0.64% | 1.95 ± 1.18% | 2.27 ± 0.74% | N#Cc1ccc2cc(Oc3ccc4c(c3)COB4O)ccc2c1 [PD-25] | significantly reduce the thickness of the dermis of dermatitis mice (P≤0.05) | significantly reduce the thickness of the epidermis of the dermatitis mice (P≤0.05) | – | – | 87.77 ± 10.58 μm | 412.42 ± 26.74 μm
12.9 ± 1.86% | 9.49 ± 1.59% | 2.69 ± 1.77% | COC(=O)c1ccc2nc(Cl)cc(Oc3ccc4c(c3)COB4O)c2c1 [PD-27] | – | – | – | – | 97.73 ± 8.95 μm | 430.05 ± 27.90 μm
